Laboratory results published in PubChem BioAssay (NCI).
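Protocol summary: plate cells (96-well), add compound at 5 concentrations, incubate 48 h, interpolate endpoints linearly. The concentration for 50% growth inhibition is given as GI50. TGI: concentration producing complete growth inhibition.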

What was measured:
Experiment in all cases: NCI anticancer screen, dose series, 48 h
MDA-MB-231 breast = system: MDA-MB-231 breast
SW-620 colon = system: SW-620 colon
OVCAR-8 ovarian = system: OVCAR-8 ovarian
TK-10 renal = system: TK-10 renal
HOP-62 NSCLC = system: HOP-62 NSCLC
NCI-H226 lung = system: NCI-H226 lung
UO-31 renal = system: UO-31 renal
NCI-H522 lung = system: NCI-H522 lung
IGROV1 ovarian = system: IGROV1 ovarian
OVCAR-4 ovarian = system: OVCAR-4 ovarian
HOP-92 NSCLC = system: HOP-92 NSCLC
U251 CNS = system: U251 CNS
SR leukemia = system: SR leukemia
LOX IMVI melanoma = system: LOX IMVI melanoma
BT-549 breast = system: BT-549 breast
SK-OV-3 ovarian = system: SK-OV-3 ovarian
HL-60(TB) leukemia = system: HL-60(TB) leukemia
HS 578T breast = system: HS 578T breast
SN12C renal = system: SN12C renal
K-562 leukemia = system: K-562 leukemia
UACC-62 melanoma = system: UACC-62 melanoma
SF-268 CNS = system: SF-268 CNS
CCRF-CEM leukemia = system: CCRF-CEM leukemia
NCI-H460 lung = system: NCI-H460 lung
MALME-3M melanoma = system: MALME-3M melanoma
HCC-2998 colon = system: HCC-2998 colon
SK-MEL-28 melanoma = system: SK-MEL-28 melanoma
A498 renal = system: A498 renal
ACHN renal = system: ACHN renal
CAKI-1 renal = system: CAKI-1 renal
NCI/ADR-RES ovarian = system: NCI/ADR-RES ovarian
RPMI-8226 leukemia = system: RPMI-8226 leukemia
SF-539 CNS = system: SF-539 CNS
MCF7 breast = system: MCF7 breast
MOLT-4 leukemia = system: MOLT-4 leukemia
M14 melanoma = system: M14 melanoma
OVCAR-3 ovarian = system: OVCAR-3 ovarian
RXF 393 renal = system: RXF 393 renal
SK-MEL-2 melanoma = system: SK-MEL-2 melanoma
DU-145 prostate = system: DU-145 prostate
MDA-MB-435 = system: MDA-MB-435
A549 NSCLC = system: A549 NSCLC
COLO 205 colon = system: COLO 205 colon
UACC-257 melanoma = system: UACC-257 melanoma
SNB-75 CNS = system: SNB-75 CNS
SF-295 CNS = system: SF-295 CNS
HCT-116 colon = system: HCT-116 colon
NCI-H23 lung = system: NCI-H23 lung
HCT-15 colon = system: HCT-15 colon
OVCAR-5 ovarian = system: OVCAR-5 ovarian
786-0 renal = system: 786-0 renal
SNB-19 CNS = system: SNB-19 CNS
SK-MEL-5 melanoma = system: SK-MEL-5 melanoma
HT29 colon = system: HT29 colon
PC-3 prostate = system: PC-3 prostate
EKVX NSCLC = system: EKVX NSCLC

`CC1OC(O[C@@H]2C(O)C(CO)OC(O[C@H]3COC(O[C@H]4CC[C@]5(C)[C@H]6CC[C@]78OC[C@@]9(CC[C@](C)(C=O)C[C@H]97)[C@H](O)C[C@@]8(C)[C@]6(C)CC[C@H]5C4(C)C)[C@@H](OC4OC(CO)[C@@H](O)[C@@H](O)[C@@H]4O)[C@@H]3O)[C@H]2OC2OC[C@@H](O)[C@@H](O)[C@@H]2O)[C@@H](O)[C@@H](O)[C@H]1O` (some centres not stated) gave a GI50 (MDA-MB-231 breast) of 1760 nM, a TGI (MDA-MB-231 breast) of 3.51 µM and a GI50 (SW-620 colon) of 1840 nM. It also gave a TGI (SW-620 colon) of 3.7 µM, a GI50 (OVCAR-8 ovarian) of 2100 nM and a TGI (OVCAR-8 ovarian) of 4.28 µM. For the same compound, the GI50 (TK-10 renal) was 2790 nM, the TGI (TK-10 renal) was 4.51 µM and the GI50 (HOP-62 NSCLC) was 1760 nM. The TGI (HOP-62 NSCLC) was 3.47 µM, the GI50 (NCI-H226 lung) was 1890 nM and the TGI (NCI-H226 lung) was 3.98 µM. For the same compound, the GI50 (UO-31 renal) was 1350 nM, the TGI (UO-31 renal) was 2820 nM and the GI50 (NCI-H522 lung) was 1970 nM. For the same compound, the TGI (NCI-H522 lung) was 3.75 µM, the GI50 (IGROV1 ovarian) was 1820 nM and the TGI (IGROV1 ovarian) was 3.93 µM. It also gave a GI50 (OVCAR-4 ovarian) of 1840 nM, a TGI (OVCAR-4 ovarian) of 3.93 µM and a GI50 (HOP-92 NSCLC) of 982 nM. The TGI (HOP-92 NSCLC) was 2620 nM, the GI50 (U251 CNS) was 2120 nM and the TGI (U251 CNS) was 3.87 µM. The GI50 (SR leukemia) was 357 nM, the TGI (SR leukemia) was 1240 nM and the GI50 (LOX IMVI melanoma) was 1740 nM. It also gave a TGI (LOX IMVI melanoma) of 3.39 µM, a GI50 (BT-549 breast) of 1770 nM and a TGI (BT-549 breast) of 3.5 µM. For the same compound, the GI50 (SK-OV-3 ovarian) was 1920 nM, the TGI (SK-OV-3 ovarian) was 3.49 µM and the GI50 (HL-60(TB) leukemia) was 598 nM. The TGI (HL-60(TB) leukemia) was 2190 nM, the GI50 (HS 578T breast) was 1920 nM and the TGI (HS 578T breast) was 4.14 µM. The GI50 (SN12C renal) was 1700 nM, the TGI (SN12C renal) was 3.51 µM and the GI50 (K-562 leukemia) was 2200 nM. For the same compound, the TGI (K-562 leukemia) was 5.68 µM, the GI50 (UACC-62 melanoma) was 1970 nM and the TGI (UACC-62 melanoma) was 3.82 µM. It also gave a GI50 (SF-268 CNS) of 1910 nM, a TGI (SF-268 CNS) of 3.91 µM and a GI50 (CCRF-CEM leukemia) of 1210 nM. The TGI (CCRF-CEM leukemia) was 4.34 µM, the GI50 (NCI-H460 lung) was 1880 nM and the TGI (NCI-H460 lung) was 3.83 µM. It also gave a GI50 (MALME-3M melanoma) of 1740 nM, a TGI (MALME-3M melanoma) of 3.51 µM and a GI50 (HCC-2998 colon) of 1950 nM. For the same compound, the TGI (HCC-2998 colon) was 3.52 µM, the GI50 (SK-MEL-28 melanoma) was 1690 nM and the TGI (SK-MEL-28 melanoma) was 3.29 µM. The GI50 (A498 renal) was 2260 nM, the TGI (A498 renal) was 3.98 µM and the GI50 (ACHN renal) was 1500 nM. For the same compound, the TGI (ACHN renal) was 2920 nM, the GI50 (CAKI-1 renal) was 1890 nM and the TGI (CAKI-1 renal) was 3.48 µM. The GI50 (NCI/ADR-RES ovarian) was 1970 nM, the TGI (NCI/ADR-RES ovarian) was 4.15 µM and the GI50 (RPMI-8226 leukemia) was 1730 nM. The TGI (RPMI-8226 leukemia) was 4.28 µM, the GI50 (SF-539 CNS) was 1610 nM and the TGI (SF-539 CNS) was 3.1 µM. For the same compound, the GI50 (MCF7 breast) was 1980 nM, the TGI (MCF7 breast) was 4.11 µM and the GI50 (MOLT-4 leukemia) was 1130 nM. The TGI (MOLT-4 leukemia) was 3.98 µM, the GI50 (M14 melanoma) was 1710 nM and the TGI (M14 melanoma) was 3.4 µM. The GI50 (OVCAR-3 ovarian) was 1980 nM, the TGI (OVCAR-3 ovarian) was 3.82 µM and the GI50 (RXF 393 renal) was 811 nM. It also gave a TGI (RXF 393 renal) of 2400 nM, a GI50 (SK-MEL-2 melanoma) of 2330 nM and a TGI (SK-MEL-2 melanoma) of 4.24 µM. For the same compound, the GI50 (DU-145 prostate) was 1950 nM, the TGI (DU-145 prostate) was 3.71 µM and the GI50 (MDA-MB-435) was 1850 nM. For the same compound, the TGI (MDA-MB-435) was 3.57 µM, the GI50 (A549 NSCLC) was 2110 nM and the TGI (A549 NSCLC) was 4.04 µM. The GI50 (COLO 205 colon) was 1620 nM, the TGI (COLO 205 colon) was 3.16 µM and the GI50 (UACC-257 melanoma) was 2030 nM. For the same compound, the TGI (UACC-257 melanoma) was 3.77 µM, the GI50 (SNB-75 CNS) was 1700 nM and the TGI (SNB-75 CNS) was 3.25 µM. For the same compound, the GI50 (SF-295 CNS) was 1760 nM, the TGI (SF-295 CNS) was 3.31 µM and the GI50 (HCT-116 colon) was 1480 nM. The TGI (HCT-116 colon) was 2980 nM, the GI50 (NCI-H23 lung) was 1890 nM and the TGI (NCI-H23 lung) was 3.74 µM. The GI50 (HCT-15 colon) was 2230 nM, the TGI (HCT-15 colon) was 5.01 µM and the GI50 (OVCAR-5 ovarian) was 1860 nM. For the same compound, the TGI (OVCAR-5 ovarian) was 3.42 µM, the GI50 (786-0 renal) was 2140 nM and the TGI (786-0 renal) was 3.97 µM. It also gave a GI50 (SNB-19 CNS) of 1810 nM, a TGI (SNB-19 CNS) of 3.71 µM and a GI50 (SK-MEL-5 melanoma) of 2380 nM. For the same compound, the TGI (SK-MEL-5 melanoma) was 5.81 µM, the GI50 (HT29 colon) was 1990 nM and the TGI (HT29 colon) was 4.02 µM. For the same compound, the GI50 (PC-3 prostate) was 1950 nM, the TGI (PC-3 prostate) was 3.64 µM and the GI50 (EKVX NSCLC) was 1930 nM. The TGI (EKVX NSCLC) was 3.84 µM.
